One series has as its system 3T3-L1 adipocytes. In words: Cell lysis effect by detergent in vitro (MTT assay). Conditions: for EC50 (concentration that kills 50% of the cells) / ED50 (% w/v); EC50 values of bile salts required to lysis of adipose cells in vitro: differentiated 3T3-L1 adipocytes; for ED50 (% w/v); EC50 values of bile salts required to lysis of adipose cells in vitro: 1 hour, MTT. The series is classed as cell-based. (Tetrazolium dyes change colour on reduction, which living cells bring about.)

Series [1] relates to inguinal fat pad of obese mouse. In words: In vivo monitoring of bile salts induced fat loss. The conditions noted are these: 1% solutions, 5 times during 2 weeks.
Series [2] relates to Inguinal fat (subcutaneous fat) pads. Put plainly: Ex vivo fat lysis assay (MTT). It is filed as cell-based, diet induced obese mice. The conditions noted are these: for ED50 (% w/v); EC50 values of bile salts required to lysis of fat tissues ex vivo: fat tissues of high fat diet mice, 10 minutes, MTT; for effect of increased pH of solution on fat lysis activities: pH 6.0 ˜pH 9.0, bile salt at EC50 in pH 7.4; for fat lysis activities above the pH 9: solutions above the pH 9.
Experimental: Inguinal fat (subcutaneous fat) pads were excised from diet induced obese mice and chopped to about the same size. 100 mg tissue samples were transferred to 48 well plates and incubated with 350 μl of various concentrations and pH of DCA, CDCA, CA, and phosphate buffer for 10 minutes. 70 μl of MTT solution (5 mg/ml in PBS) was added into each well and incubated for overnight at 37° C. The solution was removed and precipitated formazan product was dissolved in 300 μl of DMSO. Tissue viability was monitored by measuring the optical density at 570 nm (OD570) using a microplate reader.

Another series concerns mice skin. In words: In vivo monitoring of adverse events on the skin. Conditions: for skin lesions on the injected area: subcutaneous, pH 7.4, 0.5-1.5%.
The test system of the next series is rat paws. In words: Bile salt-induced paw edema. Conditions: 4 hours after injection; for severity of edema (paw thickness): concentrations and pHs showing similar tissue lysis effects.
In the next series the test system is tails of female ICR mice. In words: In vivo monitoring of tissue specific effects of bile salts (tail injection). Conditions: pH 7.4 solution; for skin layers of tails / fat layers of tails: 14 days post-injection; for fat layers of tails: compared to saline.
Series [3] can be described thus: Stability of bile salts in aqueous solution. The conditions noted are these: for pH in which aqueous solution remained stable: 1% (w/v), 10 mM phosphate buffer, 25° C.; for Solution stability of bile salt: 1% in 10 mM phosphate buffer; for pH stability: summary, Table 4.
Experimental: 0.01 g of bile salts (UDCA, DCA, CDCA and CA) were dissolved in 1 ml of phosphate buffer and placed at room temperature for 10 days.
For series [4], the system named is inguinal fat pads of obese mice. In words: Quantitation of in vivo necrotic area (TTC staining) and histology of injected fat pads.
Experimental: Various concentrations of bile salts (DCA, CDCA, and CA) solutions in 100 μl volume of PBS were injected to the inguinal fat pads of obese mice. Mice were sacrificed at 1 day after the injection. Mouse inguinal fat pads were stained with 2% TTC (Sigma-Aldrich Chemical, St. Louis, Mo., USA) in PBS for 2 hour to identify the non-necrotic and necrotic areas and subsequently immersed in 10% formalin to enhance the contrast. […] The appearance and area of necrotic fat regions were captured and imaged by scanner. The necrotic area of fat pad treated DCA, CDCA, CA, and PBS was calculated by Image J.

Experimental for 3T3-L1 adipocytes: To induce adipocyte differentiation, 3T3-L1 pre-adipocytes were seeded in 96-well plate (5×10^3 cells/well) and grown until 2 days post-confluence (day 0) and then treated for 2 days with growth media plus MDI (0.5 μM methylisobutylxanthine, 1 μM dexamethasone and 10 ug/ml insulin; all from Sigma-Aldrich Chemical, St. Louis, Mo., USA), followed by 2 days of treatment with the media containing 10 ug/ml insulin alone. Medium was replaced every 2 days for the following 8 days. Differentiated adipocytes in 96 well plate were washed twice with PBS and incubated in various concentrations of bile salts in serum free DMEM. After 1 hour incubation at 37° C., media were changed and 20 μl of MTT solution (5 mg MTT/ml in PBS) was added into each well and incubated for 1 hour at 37° C. The resultant formazan product was dissolved in 100 μl of DMSO/well and cell viability was determined by measuring the optical density at 570 nm (OD570) using a microplate reader.
Experimental for mice skin: Injections were repeated 1 more times 3 days after first injection. […] The severity of skin lesion was assessed using the following criteria. The total skin severity score was defined as the sum of the individual scores for each of the following character and length of lesion. Length of lesion is determined by measuring the longest diameter of the largest lesion identified. Measured length should involve the lesion only and not cross over clinically normal skin. The length of lesion involvement within each injected site was scored from 0 to 3, where 0=no involvement; 1=<0.2 cm, 2=0.2˜0.5 cm, 3=>0.5 cm of the length of site affected. The character of lesion was scored from 0 to 3, where 0=no lesion present, 1=excoriation only one or one, small punctate crust (<2 mm), 2=multiple, small punctate crusts or coalescing crust (>2 mm), 3=erosion or ulceration.
Experimental for rat paws: Male SD rats (6 weeks old) were purchased from Koatech Co. (Seoul, Korea) and used after 1 week of acclimation. Rats (200˜230 g) were randomly selected and the volume of intact rats paw was measured in all groups using a digital caliper (Bluebird, Seoul, Korea). […] To induce the edema, rats received 100 μl of various bile salts and PBS into the plantar region of the hind foot of rats. Measurements of the paw volume were performed by a caliper immediately before the bile salts injection and 4 hours after injection.

Regarding `C[C@H](CCC(=O)NCCS(=O)(=O)O)[C@H]1CC[C@H]2[C@@H]3[C@@H](O)C[C@@H]4C[C@H](O)CC[C@]4(C)[C@H]3CC[C@]12C` [TUDCA, taurourosodeoxycholate], the “viability of adipocyte cells” value with 3T3-L1 adipocytes (up to 2% concentration) was “did not reduce the viability of adipocyte cells”.
Turning to `C[C@H](CCC(=O)O)[C@H]1CC[C@H]2[C@@H]3[C@H](O)C[C@@H]4C[C@H](O)CC[C@]4(C)[C@H]3C[C@H](O)[C@]12C` [CA, cholate], in series [1], the “histology of injected area (H & E)” value is listed as “Fibrotic areas” and the “lesions in the administered area of fat tissues” value (“lesions in the administered area” for short) is reported as “yellowish lesions”. Moreover, in the series on 3T3-L1 adipocytes, the “EC50 (concentration that kills 50% of the cells)” value worked out at 0.42% and the “ED50 (% w/v); EC50 values of bile salts required to lysis of adipose cells in vitro” value (shortened to “ED50 (% w/v); EC50 values … in vitro”) worked out at 0.42 % w/v. Also, the “viability of adipocyte cells” value in the series with 3T3-L1 adipocytes (up to 2% concentration) was “showed cell killing”. In series [2], the “EC50 concentrations, ex vivo condition” value worked out at 0.0727%; the “ED50 (% w/v); EC50 values of bile salts required to lysis of fat tissues ex vivo” value (“ED50 (% w/v) … of fat tissues ex vivo” below) was 0.0727 % w/v; the “effect of increased pH of solution on fat lysis activities” value (shortened to “effect of increased pH of solution”) is “greatly diminishes the fat lysis activities”; the “fat lysis activities above the pH 9” value is given as “mostly lost their fat lysis activities”. In addition, the “EC50 fold higher than DCA or CDCA, ex vivo” value in series [2] (relative to DCA or CDCA) was 4 fold. Also, the skin lesions entry with mice skin (higher dose (1.5%)) is recorded as “Only small punctate lesions”. Besides, the skin damage score result in the series with mice skin (highest dose of CA (1.5%) compared to lowest dose of DCA (0.5%)) is given as “lower damage score”. The skin lesions result in the series on mice skin (lower doses) is reported as “no detectable lesions”. Further, in the series on mice skin, the “skin lesions on the injected area” value is on record as “significantly less lesions”. In addition, in the series with rat paws, the “increment of foot thickness relative to the case of DCA” value is listed as “less than one-half” and the “severity of edema (paw thickness)” value is recorded as “very mild”. For the same compound, in the series with tails of female ICR mice, the “skin layers of tails” value was “not severely damaged” and the “fat layers of tails” value is “disrupted”. In series [3], the “pH in which aqueous solution remained stable” value is recorded as below 7.0 and the pH stability is below 7.0. Also, the “Solution stability of bile salt” value in series [3] (pH 6.5, 25° C.) is “Precipitation”. For the same compound, the “Solution stability of bile salt” value in series [3] (pH 6.7, 25° C.) is “Precipitation”. Besides, the “Solution stability of bile salt” value in series [3] (pH 7.0, 25° C.) is listed as “Stable”. The “Solution stability of bile salt” value in series [3] (pH 7.2, 25° C.) is “Stable”. In addition, the “Solution stability of bile salt” value in series [3] (pH 7.4, 25° C.) is listed as “Stable”. In series [3] (pH 7.6, 25° C.), the “Solution stability of bile salt” value is listed as “Stable”. Besides, the “Solution stability of bile salt” value in series [3] (pH 7.8, 25° C.) is reported as “Stable”. The “Solution stability of bile salt” value in series [3] (pH 8.0, 25° C.) is “Stable”. The “Solution stability of bile salt” value in series [3] (pH 8.3, 25° C.) was “Stable”. In series [4] (mouse, in vivo), the “concentration enough to show similar necrotic effects with DCA and CDCA” value is recorded as “about two fold higher concentration”; the “concentration enough to show similar tissue lysis effect with 1% DCA (pH 8.3)” value is listed as 1.5%; the “necrotic areas at the same concentration” value is “smaller than DCA or CDCA”. Also, the “concentration showing similar tissue lysis activity with the injection of 1% DCA” value in series [4] (mouse, in vivo, pH 7.4) was “about 2%”.
With deoxycholate [DCA], the “histology of injected area (H & E)” value in series [1] was “Fibrotic areas”. In addition, the “lesions in the administered area” value in series [1] was “yellowish lesions”. For the same compound, the “EC50 (concentration that kills 50% of the cells)” value in the series on 3T3-L1 adipocytes worked out at 0.051%. Besides, in the series with 3T3-L1 adipocytes, the “ED50 (% w/v); EC50 values … in vitro” value was 0.0509 % w/v. Besides, the “viability of adipocyte cells” value in the series on 3T3-L1 adipocytes (low concentration (below 0.1%)) was “reduced the viability of adipocyte cells”. Moreover, the “EC50 concentrations, ex vivo condition” value in series [2] came to 0.0179%. In addition, the “ED50 (% w/v) … of fat tissues ex vivo” value in series [2] was determined as 0.0179 % w/v. Further, the “effect of increased pH of solution” value in series [2] is “do not show greatly decreased fat lysis activity”. Moreover, the skin lesions entry in the series on mice skin (higher concentrations) is “Large lesions, erosions and ulcers”; in the series on mice skin (lowest dose (0.5%)) it was “small punctate lesions”. The “skin lesions on the injected area” value in the series with mice skin is “severe skin lesions”. The “severity of edema (paw thickness)” value with rat paws was “most severe edema phenotype”. In addition, the “skin layers of tails” value in the series with tails of female ICR mice is “not severely damaged”. Besides, the “fat layers of tails” value with tails of female ICR mice is recorded as “disrupted”. Further, the “damages of muscles in tails” value in the series with tails of female ICR mice (same concentration of DCA and CA) is given as “prominent”. Besides, the “pH in which aqueous solution remained stable” value in series [3] is reported as “lower than 8.3”. In addition, the “Solution stability of bile salt” value is given as “Gelation” in series [3] (pH 6.5, 25° C.); “Gelation” in series [3] (pH 6.7, 25° C.); “Gelation” in series [3] (pH 7.0, 25° C.); “Gelation” in series [3] (pH 7.2, 25° C.); “Gelation” in series [3] (pH 7.4, 25° C.); “Gelation” in series [3] (pH 7.6, 25° C.). For the same compound, the “Solution stability of bile salt” value is “Gelation” in series [3] (pH 7.8, 25° C.); “Gelation” in series [3] (pH 8.0, 25° C.); “Stable” in series [3] (pH 8.3, 25° C.). Besides, in series [3], the pH stability is given as below 8.3. The “tissue lysis activity at pH 8.3 compared with pH 7.4” value in series [4] (necrotic area after injection) is “lower than the activity of DCA preparation in condition of pH 7.4”.
Consider `C[C@H](CCC(=O)O)[C@H]1CC[C@H]2[C@@H]3[C@@H](O)C[C@@H]4C[C@H](O)CC[C@]4(C)[C@H]3CC[C@]12C` [UDCA, ursodeoxycholate], for which, in the series with 3T3-L1 adipocytes, the “EC50 (concentration that kills 50% of the cells)” value is reported as 0.25%. Moreover, the “ED50 (% w/v); EC50 values … in vitro” value with 3T3-L1 adipocytes was 0.328 % w/v. Besides, the “severity of edema (paw thickness)” value with rat paws was “slightly lower symptom”. For the same compound, in series [3], the “pH in which aqueous solution remained stable” value was below 7.8. Further, the “Solution stability of bile salt” value in series [3] (pH 6.5, 25° C.) was “Precipitation”; in series [3] (pH 6.7, 25° C.), “Precipitation”; in series [3] (pH 7.0, 25° C.), “Precipitation”; in series [3] (pH 7.2, 25° C.), “Precipitation”; in series [3] (pH 7.4, 25° C.) it was “Precipitation”; in series [3] (pH 7.6, 25° C.), “Precipitation”. Besides, the “Solution stability of bile salt” value in series [3] (pH 7.8, 25° C.) is listed as “Stable”; in series [3] (pH 8.0, 25° C.), “Stable”; in series [3] (pH 8.3, 25° C.) it was “Stable”. The pH stability in series [3] is given as below 7.8. Also, the “histological changes in fat pads (H & E)” value in series [4] (1.5% solution) was “Infiltration of polymorphonuclear (PMN) cells into the fat pad tissue was observed”. Further, in series [4] (necrotic area, FIGS. 12B and 12C), the “tissue lysis effect with higher concentration” value is listed as “did not increased proportionally”. The “inflammation after injection to subcutaneous fat” value in series [4] (one time injection) is recorded as “severe inflammation”.
For `C[C@H](CCC(=O)O)[C@H]1CC[C@H]2[C@@H]3[C@H](O)C[C@@H]4C[C@H](O)CC[C@]4(C)[C@H]3CC[C@]12C` [CDCA, chenodeoxycholate], the “histology of injected area (H & E)” value in series [1] is given as “Fibrotic areas”. Besides, the “lesions in the administered area” value in series [1] was “yellowish lesions”. In the series with 3T3-L1 adipocytes, the “EC50 (concentration that kills 50% of the cells)” value turned out to be 0.060%. The “ED50 (% w/v); EC50 values … in vitro” value in the series on 3T3-L1 adipocytes is reported as 0.0597 % w/v. In addition, the “viability of adipocyte cells” value in the series on 3T3-L1 adipocytes (low concentration (below 0.1%)) was “reduced the viability of adipocyte cells”. The “EC50 concentrations, ex vivo condition” value in series [2] turned out to be 0.0180%. Also, the “ED50 (% w/v) … of fat tissues ex vivo” value in series [2] is listed as 0.018 % w/v. In addition, the “effect of increased pH of solution” value in series [2] was “greatly diminishes the fat lysis activities”. Also, the “fat lysis activities above the pH 9” value in series [2] is listed as “mostly lost their fat lysis activities”. In addition, the “severity of edema (paw thickness)” value with rat paws is reported as “slightly lower symptom”. Moreover, the “Solution stability of bile salt” value was “Gelaton” in series [3] (pH 6.5, 25° C.); “Gelation” in series [3] (pH 6.7, 25° C.); “Gelation” in series [3] (pH 7.0, 25° C.); “Precipitation” in series [3] (pH 7.2, 25° C.); “Stable” in series [3] (pH 7.4, 25° C.); “Stable” in series [3] (pH 7.6, 25° C.). Also, the “Solution stability of bile salt” value in series [3] (pH 7.8, 25° C.) is reported as “Stable”; in series [3] (pH 8.0, 25° C.), “Stable”; in series [3] (pH 8.3, 25° C.), “Stable”. In addition, in series [3], the pH stability is below 7.4. Besides, in series [4] (CA at pH 7.0, CDCA at pH 7.4), the “concentration enough to show similar tissue lysis effect with 1% DCA (pH 8.3)” value worked out at 0.6%. In addition, the “concentration showing similar tissue lysis activity with the injection of 1% DCA” value in series [4] (same pH (pH 7.4)) amounted to 1%.

The values above are taken from patent US10729700B2, “Methods and compositions of bile acids and salts for reduction of fat” (priority 2014, dated 2020).
